Results as given in article PMC9977294, “A parasitic fungus employs mutated eIF4A to survive on rocaglate-synthesizing Aglaia plants” (eLife, 2023).
Values joined by “and” are separate entries in the source; they are usually repeats but may differ in a detail not shown here. Identical values can stand only once. Like-named read-outs stand apart in the source and are kept apart here.

What was measured:
Experiment in all cases: Fluorescence polarization assay, FAM-labeled [AG]10 RNA and recombinant eIF4A
Format in all cases: binding
Details in all cases: for Kd: [AG]10 10 nM, compound 50 µM, read-out: Kd between eIF4A protein and RNA
[1] = target: Ophiocordyceps sp. BRM1 eIF4A iso4 WT Gly172
Procedure: (§1) The fluorescence polarization assay was performed as previously described ([Chen et al., 2021]). […] After incubation at room temperature for 30 min, the mixture was transferred to a black 384-well microplate (Corning), and the fluorescence polarization was measured by an Infinite F-200 PRO (Tecan). Under ADP + Pi conditions, 1 mM ADP (Fujifilm Wako Chemicals) and 1 mM Na2HPO4 were used as substitutes for AMP-PNP. The data were fitted to the Hill equation to calculate Kd values and visualized by Igor Pro v8.01 (WaveMetrics).

[2] = target: Ophiocordyceps sp. BRM1 eIF4A iso4 Gly172Phe
Procedure: as §1

[3] = target: Ophiocordyceps sp. BRM1 eIF4A iso4 Gly172His
Procedure: as §1

[4] = [AG]10, ADP + Pi, RocA 50 µM, protein 0.01 μM
[5] = [AG]10, ADP + Pi, RocA 50 µM, protein 0.05 μM
[6] = [AG]10, ADP + Pi, RocA 50 µM, protein 0.075 μM
[7] = [AG]10, ADP + Pi, RocA 50 µM, protein 0.1 μM
[8] = [AG]10, ADP + Pi, RocA 50 µM, protein 0.5 μM
[9] = [AG]10, ADP + Pi, RocA 50 µM, protein 0.75 μM
[10] = [AG]10, ADP + Pi, RocA 50 µM, protein 1 μM
[11] = [AG]10, ADP + Pi, RocA 50 µM, protein 5 μM
[12] = [AG]10, ADP + Pi, RocA 50 µM, protein 7.5 μM
[13] = [AG]10, ADP + Pi, RocA 50 µM, protein 10 μM
[14] = [AG]10, ADP + Pi, RocA 50 µM, protein 25 μM
[15] = [AG]10, ADP + Pi, RocA 50 µM, protein 50 μM
[16] = [AG]10 RNA, AMP-PNP, RocA, protein concentration 0.01 μM
[17] = [AG]10 RNA, AMP-PNP, RocA, protein concentration 0.05 μM
[18] = [AG]10 RNA, AMP-PNP, RocA, protein concentration 0.075 μM
[19] = [AG]10 RNA, AMP-PNP, RocA, protein concentration 0.1 μM
[20] = [AG]10 RNA, AMP-PNP, RocA, protein concentration 0.5 μM
[21] = [AG]10 RNA, AMP-PNP, RocA, protein concentration 0.75 μM
[22] = [AG]10 RNA, AMP-PNP, RocA, protein concentration 1 μM
[23] = [AG]10 RNA, AMP-PNP, RocA, protein concentration 5 μM
[24] = [AG]10 RNA, AMP-PNP, RocA, protein concentration 7.5 μM
[25] = [AG]10 RNA, AMP-PNP, RocA, protein concentration 10 μM
[26] = [AG]10 RNA, AMP-PNP, RocA, protein concentration 25 μM
[27] = [AG]10 RNA, AMP-PNP, RocA, protein concentration 50 μM

Structure (SMILES): COc1ccc([C@@]23Oc4cc(OC)cc(OC)c4[C@]2(O)[C@H](O)[C@H](C(=O)N(C)C)[C@H]3c2ccccc2)cc1 [RocA, rocaglamide A]
- Kd ([1]; ADP + Pi (1 mM each)): ~17 µM and 17 µM
- Kd ([1]; AMP-PNP 1 mM): 0.23 ± 0.05 µM
- fluorescence polarization, Mean [1, 4]: -0.01093
- fluorescence polarization, replicates [1, 4]: 0.0929
- fluorescence polarization, Mean [1, 5]: -0.1393
- fluorescence polarization, replicates [1, 5]: -0.2186
- fluorescence polarization, Mean [1, 6]: -0.09563
- fluorescence polarization, replicates [1, 6]: -0.03825 and -0.2268
- fluorescence polarization, Mean [1, 7]: -0.08743
- fluorescence polarization, replicates [1, 7]: -0.09563
- fluorescence polarization, Mean [1, 8]: -0.2951
- fluorescence polarization, replicates [1, 8]: -0.2432 and -0.2923 and -0.3497
- fluorescence polarization, Mean [1, 9]: -0.347
- fluorescence polarization, replicates [1, 9]: -0.3169 and -0.3661 and -0.3579
- fluorescence polarization, Mean [1, 10]: -0.2568
- fluorescence polarization, replicates [1, 10]: -0.1858 and -0.2104 and -0.3743
- fluorescence polarization, Mean [1, 11]: -0.112
- fluorescence polarization, replicates [1, 11]: -0.1448 and -0.1612
- fluorescence polarization, Mean [1, 12]: -0.1202
- fluorescence polarization, replicates [1, 12]: -0.08743
- fluorescence polarization, Mean [1, 13]: 0.002732
- fluorescence polarization, replicates [1, 13]: -0.005465
- fluorescence polarization, Mean [1, 14]: 0.2951
- fluorescence polarization, replicates [1, 14]: 0.265
- fluorescence polarization, Mean [1, 15]: 0.4044
- fluorescence polarization, replicates [1, 15]: 0.4208 and 0.429
- Fluorescence polarization, Replicate 1-3 [1, 16]: -0.2186 and -0.2022 and -0.2268
- fluorescence polarization, Mean [1, 16]: -0.2158
- Fluorescence polarization, Replicate 1-3 [1, 17]: 0.2732 and -0.005465 and -0.2268
- fluorescence polarization, Mean [1, 17]: 0.01366
- Fluorescence polarization, Replicate 1-3 [1, 18]: -0.112 and -0.04645 and -0.2104
- fluorescence polarization, Mean [1, 18]: -0.123
- Fluorescence polarization, Replicate 1-3 [1, 19]: 0.3224 and -0.194 and -0.1612
- fluorescence polarization, Mean [1, 19]: -0.01093
- Fluorescence polarization, Replicate 1-3 [1, 20]: 0.2896
- fluorescence polarization, Mean [1, 20]: 0.2896
- Fluorescence polarization, Replicate 1-3 [1, 21]: 0.4699 and 0.2732 and 0.1585
- fluorescence polarization, Mean [1, 21]: 0.3005
- Fluorescence polarization, Replicate 1-3 [1, 22]: 0.4617 and 0.347 and 0.3306
- fluorescence polarization, Mean [1, 22]: 0.3798
- Fluorescence polarization, Replicate 1-3 [1, 23]: 0.5683 and 0.3962 and 0.429
- fluorescence polarization, Mean [1, 23]: 0.4645
- Fluorescence polarization, Replicate 1-3 [1, 24]: 0.5765 and 0.4372 and 0.4044
- fluorescence polarization, Mean [1, 24]: 0.4727
- Fluorescence polarization, Replicate 1-3 [1, 25]: 0.4372 and 0.3962 and 0.3224
- fluorescence polarization, Mean [1, 25]: 0.3852
- Fluorescence polarization, Replicate 1-3 [1, 26]: 0.6585 and 0.4372 and 0.4617
- fluorescence polarization, Mean [1, 26]: 0.5191
- Fluorescence polarization, Replicate 1-3 [1, 27]: 0.5929 and 0.4863 and 0.4699
- fluorescence polarization, Mean [1, 27]: 0.5164
- Kd ([2]; ADP + Pi (1 mM each)): 0.27 ± 0.05 µM
- Kd ([2]; AMP-PNP 1 mM): 0.053 ± 0.023 µM
- fluorescence polarization, Mean [2, 4]: -0.0929
- fluorescence polarization, replicates [2, 4]: -0.1366
- fluorescence polarization, Mean [2, 5]: -0.112
- fluorescence polarization, replicates [2, 5]: -0.1366
- fluorescence polarization, Mean [2, 6]: -0.05465
- fluorescence polarization, replicates [2, 6]: -0.005465
- fluorescence polarization, Mean [2, 7]: 0.05191
- fluorescence polarization, replicates [2, 7]: 0.0929 and 0.002732
- fluorescence polarization, Mean [2, 8]: 0.3142
- fluorescence polarization, replicates [2, 8]: 0.3142 and 0.2486
- fluorescence polarization, Mean [2, 9]: 0.3661
- fluorescence polarization, replicates [2, 9]: 0.429 and 0.306
- fluorescence polarization, Mean [2, 10]: 0.4044
- fluorescence polarization, replicates [2, 10]: 0.3552 and 0.429 (2×)
- fluorescence polarization, Mean [2, 11]: 0.4399
- fluorescence polarization, replicates [2, 11]: 0.4781 and 0.4208 (2×)
- fluorescence polarization, Mean [2, 12]: 0.5328
- fluorescence polarization, replicates [2, 12]: 0.5519 and 0.5027
- fluorescence polarization, Mean [2, 13]: 0.5055
- fluorescence polarization, replicates [2, 13]: 0.4372 and 0.5109 and 0.5683
- fluorescence polarization, Mean [2, 14]: 0.5301
- fluorescence polarization, replicates [2, 14]: 0.4863
- fluorescence polarization, Mean [2, 15]: 0.5273
- fluorescence polarization, replicates [2, 15]: 0.5765 and 0.5519 and 0.4536
- Fluorescence polarization, Replicate 1-3 [2, 16]: 0.3525 and 0.2213 and 0.04098
- fluorescence polarization, Mean [2, 16]: 0.2049
- Fluorescence polarization, Replicate 1-3 [2, 17]: 0.3852 and 0.2951 and 0.2787
- fluorescence polarization, Mean [2, 17]: 0.3197
- Fluorescence polarization, Replicate 1-3 [2, 18]: 0.3197 and 0.3607 and 0.3361
- fluorescence polarization, Mean [2, 18]: 0.3388
- Fluorescence polarization, Replicate 1-3 [2, 20]: 0.8689 and 0.8197
- Fluorescence polarization, Replicate 1-3 [2, 21]: 0.8115 and 0.7295
- fluorescence polarization, Mean [2, 21]: 0.7514
- Fluorescence polarization, Replicate 1-3 [2, 22]: 0.8279 and 0.8934
- Fluorescence polarization, Replicate 1-3 [2, 23]: 0.8197 and 0.877
- fluorescence polarization, Mean [2, 23]: 0.8661
- Fluorescence polarization, Replicate 1-3 [2, 24]: 0.9262 and 0.8361 and 0.8525
- fluorescence polarization, Mean [2, 24]: 0.8716
- Fluorescence polarization, Replicate 1-3 [2, 25]: 0.8689 and 0.8525 and 0.8033
- fluorescence polarization, Mean [2, 25]: 0.8415
- Fluorescence polarization, Replicate 1-3 [2, 26]: 0.8607 and 0.9262 and 0.877
- fluorescence polarization, Mean [2, 26]: 0.888
- Fluorescence polarization, Replicate 1-3 [2, 27]: 0.9344 and 0.9672 and 0.9098
- fluorescence polarization, Mean [2, 27]: 0.9372
- Kd ([3]; ADP + Pi (1 mM each)): 3.9 ± 0.98 µM
- Kd ([3]; AMP-PNP 1 mM): 0.051 ± 0.0091 µM
- fluorescence polarization, Mean [3, 4]: -0.1448
- fluorescence polarization, replicates [3, 4]: -0.04098 and -0.2377
- fluorescence polarization, Mean [3, 5]: -0.08743
- fluorescence polarization, replicates [3, 5]: -0.08197 and -0.02459
- fluorescence polarization, Mean [3, 6]: -0.06284
- fluorescence polarization, replicates [3, 6]: -0.05738 and -0.123 and -0.008197
- fluorescence polarization, Mean [3, 7]: -0.07923
- fluorescence polarization, replicates [3, 7]: -0.05738 and -0.08197 and -0.09836
- fluorescence polarization, Mean [3, 8]: 0.265
- fluorescence polarization, replicates [3, 8]: 0.2459 and 0.2541 and 0.2951
- fluorescence polarization, Mean [3, 9]: 0.2814
- fluorescence polarization, replicates [3, 9]: 0.3197 and 0.3443 and 0.1803
- fluorescence polarization, Mean [3, 10]: 0.4809
- fluorescence polarization, replicates [3, 10]: 0.4754 and 0.5 and 0.4672
- fluorescence polarization, replicates [3, 11]: 0.459 and 0.6639
- fluorescence polarization, Mean [3, 12]: 0.7978
- fluorescence polarization, replicates [3, 13]: 0.5246 and 0.5902 and 0.582
- fluorescence polarization, Mean [3, 14]: 0.8743
- fluorescence polarization, replicates [3, 14]: 0.8197 and 0.877 and 0.9262
- fluorescence polarization, Mean [3, 15]: 1.003
- fluorescence polarization, replicates [3, 15]: 1.033 and 1.0082
- Fluorescence polarization, Replicate 1-3 [3, 16]: 0.06831 and 0.1421 and 0.06011
- fluorescence polarization, Mean [3, 16]: 0.09016
- Fluorescence polarization, Replicate 1-3 [3, 17]: 0.5929 and 0.5109 and 0.4781
- fluorescence polarization, Mean [3, 17]: 0.5273
- Fluorescence polarization, Replicate 1-3 [3, 18]: 0.5519 and 0.5601 (2×)
- fluorescence polarization, Mean [3, 18]: 0.5574
- Fluorescence polarization, Replicate 1-3 [3, 19]: 0.6093 and 0.6749 and 0.5519
- fluorescence polarization, Mean [3, 19]: 0.612
- Fluorescence polarization, Replicate 1-3 [3, 20]: 0.8716 (2×) and 0.806
- fluorescence polarization, Mean [3, 20]: 0.8497
- Fluorescence polarization, Replicate 1-3 [3, 21]: 0.8798 and 0.8634 and 0.9126
- fluorescence polarization, Mean [3, 21]: 0.8852
- Fluorescence polarization, Replicate 1-3 [3, 22]: 0.9536 and 0.9372 and 0.8716
- fluorescence polarization, Mean [3, 22]: 0.9208
- Fluorescence polarization, Replicate 1-3 [3, 23]: 0.9372 (2×) and 0.9044
- fluorescence polarization, Mean [3, 23]: 0.9262
- Fluorescence polarization, Replicate 1-3 [3, 24]: 0.8716 and 0.9126 and 0.9044
- fluorescence polarization, Mean [3, 24]: 0.8962
- Fluorescence polarization, Replicate 1-3 [3, 25]: 0.9536 and 0.929 and 0.8552
- fluorescence polarization, Mean [3, 25]: 0.9126
- Fluorescence polarization, Replicate 1-3 [3, 26]: 0.9372 and 1.027 and 0.9536
- fluorescence polarization, Mean [3, 26]: 0.9727
- Fluorescence polarization, Replicate 1-3 [3, 27]: 1.044 (2×) and 1.027
- fluorescence polarization, Mean [3, 27]: 1.038
